Results on four compounds are retold here after patent publication US20230312564A1, “AROMATIC RING-LACTAM COMPOUND, PREPARATION METHOD THEREFOR AND USE THEREOF” (SHANGHAI RINGENE BIOPHARMA CO., LTD., priority 2020, published 2023).

For one data set, the system named is p-ERK in MiaPaca-2. Description: p-ERK feedback upregulation in MiaPaca-2 tumor cells. The class given is cell-based. The settings on record: acting on MiaPaca-2.
A further data set relates to Colo-205 cells. In words: Colo-205 tumor cell proliferation, CCK-8, 72 hours. The class given is cell-based. The following applies: for pIC50: Homo sapiens, COLO 205, 72 hours, CCK-8, numeric values, read-out: Colo-205 IC50; for cell proliferation inhibitory activity (in words): Colo-205.
The next data set has as its target T1, ERK1/2 kinase.
T1 construct: fused on or other part: Carna's ERK products carry a GST tag by vendor knowledge
Description: ERK1/2 kinase (Carna) inhibitory activity, Caliper mobility shift. The class given is biochemical. The settings on record: for pIC50: read-out: ERK½ IC50. Summed up: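 Compounds tested from 10 μM top concentration, 3-fold dilutions to 10 points, in duplicate, in 1× kinase buffer; Caliper mobility-shift readout.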

Data set [1] has as its system Colo-205 transplanted tumor. In words: Growth inhibition of nude mice Colo-205 transplanted tumor. Type of data set: in vivo. The settings on record: 50 mg/kg, qdx21, po. As for the experimental part: The tumor tissue in the vigorous growth phase was cut into about 1.5 mm^3 and inoculated subcutaneously in the right axilla of nude mice under sterile conditions. The diameter of subcutaneous transplanted tumors in nude mice was measured with a vernier caliper, and the mice were randomly divided into groups when the average tumor volume reached about 130 mm^3. The embodiment compounds (injection water containing 1% Tween 80 were configured to a desired concentration for later use) were orally administered daily at a given dose for three consecutive weeks, and the solvent control group was administered with the same amount of solvent. During the whole test, the diameter of transplanted tumor was measured twice a week, and the mice were weighed at the same time. The calculation formula of tumor volume (TV) is expressed as TV=1/2×a×b^2, wherein a and b represent length and width, respectively. The relative tumor volume (RTV) was calculated according to the measurement results, and the calculation formula is RTV=Vt/V0, wherein V0 is the tumor volume measured when administered in separate cages (i.e., d0), and Vt is the tumor volume at the time of each measurement.

The target of the next data set is CYP2C8 (Homo sapiens, UniProt P11712). In words: Direct inhibition test (DI test) in human liver microsomes, CYP2C8. The class given is in vitro ADME. Background: Liver microsomes are vesicles of endoplasmic reticulum, rich in cytochrome P450 enzymes.
Chain of CYP2C8 (P11712 whole entry): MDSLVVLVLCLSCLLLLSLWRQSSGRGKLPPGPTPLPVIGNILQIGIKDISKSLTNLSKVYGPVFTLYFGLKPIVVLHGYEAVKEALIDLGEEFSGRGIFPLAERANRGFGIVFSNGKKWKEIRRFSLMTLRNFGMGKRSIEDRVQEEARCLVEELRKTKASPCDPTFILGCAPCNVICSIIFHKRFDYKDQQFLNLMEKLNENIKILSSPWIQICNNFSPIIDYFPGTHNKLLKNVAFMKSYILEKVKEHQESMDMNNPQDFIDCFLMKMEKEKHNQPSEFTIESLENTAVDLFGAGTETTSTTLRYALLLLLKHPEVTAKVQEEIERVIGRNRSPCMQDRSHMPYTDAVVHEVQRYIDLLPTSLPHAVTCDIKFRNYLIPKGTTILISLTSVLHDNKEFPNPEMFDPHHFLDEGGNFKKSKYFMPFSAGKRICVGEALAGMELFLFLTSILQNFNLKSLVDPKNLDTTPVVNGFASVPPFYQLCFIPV
Data set [2] can be described thus: Liver microsomal metabolic stability, human. The class given is in vitro ADME. The settings on record: liver microsomes, 0.5 mg/mL microsomes, 1 μM compound, NADPH, read-out: Liver microsomal stability T1/2. As for the experimental part: (§1) The reaction was stopped with tinidazole-containing acetonitrile at 0 min, 5 min, 10 min and 30 min, respectively. After vortexing for 10 min and centrifuging at 15,000 rmp for 10 min, 50 μL of the supernatant was injected into a 96-well plate. The metabolic stability of the compound was calculated by determining the relative reduction of the drug, calculated as half-life T1/2.

A short description of data set [3]: Liver microsomal metabolic stability, dog. The class given is in vitro ADME. The settings on record: liver microsomes, 0.5 mg/mL microsomes, 1 μM compound, NADPH, read-out: Liver microsomal stability T1/2. How it is done: as §1
Data set [4] can be described thus: In-vivo pharmacokinetic parameters in mice. Further details: species or system Balb-c mice. The gist of the method:
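Male SD rats or Balb-c mice were dosed intravenously at 1 mg/kg or orally at 5 mg/kg. Jugular-vein plasma was sampled up to 24 h and analysed by LC-MS/MS. Non-compartmental analysis gave AUC, MRT, Cmax, Tmax, T1/2, Vd and oral bioavailability (F).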

Data set [5] in a line: Liver microsomal stability, comparisons in words across species. The class given is in vitro ADME. The following applies: mouse, rat and human; compared with comparative compound 5. How it is done: as §1
Another data set concerns the target T2, CYP2C19 (Homo sapiens, UniProt P33261).
T2 construct: A system containing 100 μL of human liver microsomes; from tissue; host or cells: human liver microsomes
In words: Direct inhibition test (DI test) in human liver microsomes, CYP2C19. The class given is in vitro ADME. As for the experimental part:
(§2) (2) Direct inhibition test (DI test): A system containing 100 μL of human liver microsomes (final concentration of 0.2 mg/mL) was subjected to a direct inhibition incubation, and the system contained NADPH (final concentration of 1 mM), 10 μM compound, positive inhibitor cocktail (10 μM ketoconazole, 10 μM quinidine, 100 μM sulfaphenazole, 10 μM α-naphthoflavone, 1,000 μM tranylcypromine), negative control (BPS of 0.1% DMSO), and mixed probe substrates (10 μM midazolam, 100 μM testosterone, 10 μM dextromethorphan, […], 100 μM phenacetin, 100 μM mephenytoin). After 20 minutes of incubation, the reaction was stopped. The relative activity of the enzyme was calculated by measuring the relative production of metabolites.

Another data set deals with T3, CYP3A4 (Homo sapiens, UniProt P08684).
T3 construct: A system containing 100 μL of human liver microsomes; from tissue; host or cells: human liver microsomes
T3 sequence (P08684 whole entry): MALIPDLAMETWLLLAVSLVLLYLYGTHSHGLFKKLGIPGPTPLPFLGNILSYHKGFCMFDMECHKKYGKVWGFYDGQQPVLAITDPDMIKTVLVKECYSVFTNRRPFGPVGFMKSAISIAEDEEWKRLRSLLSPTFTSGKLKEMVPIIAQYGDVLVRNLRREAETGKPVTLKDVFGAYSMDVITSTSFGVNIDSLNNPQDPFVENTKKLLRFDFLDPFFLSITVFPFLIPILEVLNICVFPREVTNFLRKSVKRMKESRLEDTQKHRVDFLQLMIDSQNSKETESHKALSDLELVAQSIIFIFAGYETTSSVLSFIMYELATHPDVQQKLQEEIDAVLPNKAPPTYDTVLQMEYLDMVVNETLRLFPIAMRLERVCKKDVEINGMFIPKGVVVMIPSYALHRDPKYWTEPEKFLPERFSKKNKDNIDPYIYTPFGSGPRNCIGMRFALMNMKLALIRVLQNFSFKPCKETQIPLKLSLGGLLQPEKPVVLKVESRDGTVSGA
In words: Direct inhibition test (DI test) in human liver microsomes, CYP3A4. The class given is in vitro ADME. How it is done: as §2

Another data set has as its target T4, CYP2D6 (Homo sapiens, UniProt P10635).
T4 construct: A system containing 100 μL of human liver microsomes; from tissue; host or cells: human liver microsomes
In words: Direct inhibition test (DI test) in human liver microsomes, CYP2D6. The class given is in vitro ADME. How it is done:
as §2

In a further data set the target is T5, CYP1A2 (Homo sapiens, UniProt P05177).
T5 sequence (P05177 1-516): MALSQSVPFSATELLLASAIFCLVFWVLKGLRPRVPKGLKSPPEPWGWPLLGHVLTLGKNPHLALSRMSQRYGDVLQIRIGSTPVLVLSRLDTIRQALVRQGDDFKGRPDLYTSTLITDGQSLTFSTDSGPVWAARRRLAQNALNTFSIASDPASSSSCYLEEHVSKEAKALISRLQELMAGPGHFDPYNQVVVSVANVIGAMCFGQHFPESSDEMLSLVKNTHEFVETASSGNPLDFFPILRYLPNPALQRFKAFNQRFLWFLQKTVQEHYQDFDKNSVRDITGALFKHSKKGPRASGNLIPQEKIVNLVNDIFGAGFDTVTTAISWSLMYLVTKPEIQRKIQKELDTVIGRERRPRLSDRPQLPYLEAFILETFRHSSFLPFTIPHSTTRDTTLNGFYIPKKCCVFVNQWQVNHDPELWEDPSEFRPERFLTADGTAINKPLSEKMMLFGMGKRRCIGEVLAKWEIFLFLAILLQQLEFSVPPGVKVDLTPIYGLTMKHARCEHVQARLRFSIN
Description: Direct inhibition test (DI test) in human liver microsomes, CYP1A2. How it is done:
as §2

Data set [6] in a line: Liver microsomal metabolic stability, mouse. The following applies: liver microsomes, 0.5 mg/mL microsomes, 1 μM compound, NADPH, read-out: Liver microsomal stability T1/2. The class given is in vitro ADME. As for the experimental part: as §1
Data set [7] in a line: Liver microsomal metabolic stability, rat. The settings on record: liver microsomes, 0.5 mg/mL microsomes, 1 μM compound, NADPH, read-out: Liver microsomal stability T1/2. Type of data set: in vitro ADME. How it is done:
as §1

[8] abbreviates: male, Balb-c, mouse, plasma, IV, 1 mg/kg.
[9] abbreviates: male, Balb-c, mouse, plasma, PO, 5 mg/kg.

For orientation: pIC50 means the IC50 on a negative log10 scale, so that one unit is a factor of ten. As usually defined, the T/C is the result in the treated group divided by that in the control group, in per cent. For orientation: IC50 means the concentration that inhibits the measured activity by half. A low value points to higher potency. A word on the AUC(0-inf): it is the area under the concentration-time curve extrapolated to infinity. Read a high AUC(0-inf) as more exposure. In general, AUC(0-t) refers to exposure summed from dosing to a finite time, without extrapolation to infinity. A low value points to low exposure. For orientation: MRT inf means a mean duration of stay, worked out from the concentration-time curve. Broadly, the clearance is the rate of elimination divided by the concentration. A lower clearance goes with a low capacity for elimination. One may read the Cmax as the highest concentration seen after dosing. As usually defined, the Tmax is the time at which the peak concentration occurs.

pIC50: −log10 of the molar value. Like-named read-outs stand apart in the source and are kept apart here.

T4 sequence (P10635 whole entry): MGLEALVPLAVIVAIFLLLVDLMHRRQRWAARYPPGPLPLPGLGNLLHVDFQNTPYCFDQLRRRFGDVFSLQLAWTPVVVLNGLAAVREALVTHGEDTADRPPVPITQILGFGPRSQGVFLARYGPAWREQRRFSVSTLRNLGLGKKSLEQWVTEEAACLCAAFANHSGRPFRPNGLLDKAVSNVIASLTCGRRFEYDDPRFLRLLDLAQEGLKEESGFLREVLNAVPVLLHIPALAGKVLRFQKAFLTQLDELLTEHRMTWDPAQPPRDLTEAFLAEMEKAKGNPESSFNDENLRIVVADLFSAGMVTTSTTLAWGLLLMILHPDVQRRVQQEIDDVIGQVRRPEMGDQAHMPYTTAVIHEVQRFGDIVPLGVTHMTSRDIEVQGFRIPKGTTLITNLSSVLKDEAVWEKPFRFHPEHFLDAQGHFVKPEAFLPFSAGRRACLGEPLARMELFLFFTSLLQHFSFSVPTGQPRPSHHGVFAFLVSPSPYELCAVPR
T2 sequence (P33261 whole entry): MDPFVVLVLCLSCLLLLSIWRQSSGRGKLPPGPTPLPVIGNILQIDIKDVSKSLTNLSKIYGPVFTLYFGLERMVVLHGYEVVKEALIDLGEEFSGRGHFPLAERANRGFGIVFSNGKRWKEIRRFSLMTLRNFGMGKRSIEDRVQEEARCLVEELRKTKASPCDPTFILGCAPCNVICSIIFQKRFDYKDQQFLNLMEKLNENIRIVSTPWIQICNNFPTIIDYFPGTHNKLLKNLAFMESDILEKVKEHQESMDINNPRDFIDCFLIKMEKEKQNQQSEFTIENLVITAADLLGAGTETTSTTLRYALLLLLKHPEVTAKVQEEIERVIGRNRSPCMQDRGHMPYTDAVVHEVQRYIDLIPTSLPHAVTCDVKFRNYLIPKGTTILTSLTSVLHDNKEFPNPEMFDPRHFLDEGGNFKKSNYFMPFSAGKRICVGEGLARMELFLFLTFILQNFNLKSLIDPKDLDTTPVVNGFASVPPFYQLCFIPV

On to `CC(C)Nc1cc(-c2c[nH]c(C(=O)N[C@H](CO)c3cccc(Cl)c3)c2)c(Cl)cn1` [BVD523, reference compound], for which, in the data set on p-ERK in MiaPaca-2, the “p-ERK upregulation (in words)” value was “will cause p-ERK feedback upregulation”. Also, the values for the pIC50 with Colo-205 cells and on ERK1/2 kinase (class symbols) were 6.55 and above 8.00, respectively. This compound yielded a T/C in data set [1] of 48.5%. The “Initial weight (D0)” value in [1] (D0) came to 19.8 g. In addition, in data set [1] (D21), the “Terminal weight (D21)” value was determined as 19.0 g. This compound displayed an Initial tumor volume in data set [1] (initial) of 97 ± 14 mm^3. In data set [1] (terminal), this compound had a Terminal tumor volume of 471 ± 198 mm^3.

The compound `COc1cc(F)cc([C@@H](CO)NC(=O)[C@@H](C)N2Cc3ccc(-c4nc(NC5CCOCC5)ncc4Cl)nc3C2=O)c1` [Embodiment 18] displayed an IC50 at 20 min at CYP2C8 above 10 µM. The “cell proliferation inhibitory activity (in words)” value with Colo-205 cells is given as “strong cell proliferation inhibitory activity”. Moreover, the pIC50 was 7.48 with Colo-205 cells; 9.10 at ERK1/2 kinase (numeric values); below 5.00 against CYP2C19; below 5.00 on CYP3A4; below 5.00 at CYP2D6; below 5.00 on CYP1A2. Also, the half-life at 1 μM is 12 min in data set [2], 32 min in data set [3], 32 min in data set [6] and 16 min in data set [7]. Moreover, in the data set with ERK1/2 kinase, the “enzyme inhibitory activity (in words)” value was “extremely strong enzyme inhibitory activity”. Moreover, the F in [4] (PO 5 mg/kg vs IV 1 mg/kg) was 25%. Further, the AUC(0-inf) in data set [4] (setting [8]) stood at 0.202 µM·h; in data set [4] (setting [9]) it was 0.257 µM·h. The AUC(0-t) in data set [4] (setting [8]) was determined as 0.198 µM·h; in data set [4] (setting [9]), 0.253 µM·h. The compound further came in with an MRT inf in data set [4] (setting [8]) of 30 min. For the same compound, in data set [4] (setting [8]), the clearance was found to be 144 mL/min/kg. In addition, the values for the half-life in [4] (setting [8]) and in [4] (setting [9]) were 72 min and 42 min, respectively. Moreover, the Vd in data set [4] (male, Balb-c, mouse, plasma, IV, 1 mg/kg, read-out: Vss) came out at 3.9 L/kg. The compound further gave a Cmax in data set [4] (setting [9]) of 289 nM. Moreover, in data set [4] (setting [9]), the Tmax was 24 min. The “stability in liver microsomes (in words)” value in data set [5] is “significantly improved”.

In the case of `C[C@H](C(=O)N[C@H](CO)c1ccc(F)c(Cl)c1)N1Cc2ccc(-c3nc(NC4CCOCC4)ncc3F)c(F)c2C1=O` [Embodiment 48], the IC50 at 20 min against CYP2C8 was above 10 µM. Also, the “cell proliferation inhibitory activity (in words)” value in the data set on Colo-205 cells was “strong cell proliferation inhibitory activity”. For the same compound, the pIC50 in the data set with Colo-205 cells is 7.72; on ERK1/2 kinase (numeric values), above 9.00; at CYP2C19, below 5.00; at CYP3A4, below 5.00; at CYP2D6, below 5.00; on CYP1A2, below 5.00.

As for `[2H]C([2H])([2H])Oc1cc(F)cc([C@@H](CO)NC(=O)[C@@H](C)N2Cc3ccc(-c4nc(NC5CCOCC5)ncc4F)c(F)c3C2=O)c1` [Embodiment 49], at CYP2C8, the IC50 at 20 min was above 10 µM. For the same compound, the “cell proliferation inhibitory activity (in words)” value with Colo-205 cells was “strong cell proliferation inhibitory activity”. The pIC50 in the data set on Colo-205 cells is 7.76; on ERK1/2 kinase (numeric values), above 9.00; against CYP2C19, below 5.00; at CYP3A4, below 5.00; at CYP2D6, below 5.00; at CYP1A2 it was below 5.00. In the data set with ERK1/2 kinase, the “enzyme inhibitory activity (in words)” value is reported as “extremely strong enzyme inhibitory activity”.
